From PubChem BioAssay AID858 (Vanderbilt High Throughput Screening Facility, 2007)
The source made the active and inactive calls.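 Rule for the calls: active = at least two of three replicate dose series yielding a converging curve fit, whether well or thinly supported; inactive = the rest.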

Target: D(1A) dopamine receptor (Homo sapiens) (UniProt P21728)
Assay: concentration-dependent D1 reporter signal change – cell-based, CRE-luciferase, HEK293, dopamine EC30, D1 allosteric modulator project, dose response (AID 858);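 note: HEK 293 cells bearing human D1 receptor stimulated by dopamine at its EC30; luciferase light from a cAMP response element reporter gene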

Sequence of D(1A) dopamine receptor (Homo sapiens) (P21728 whole entry, looked up): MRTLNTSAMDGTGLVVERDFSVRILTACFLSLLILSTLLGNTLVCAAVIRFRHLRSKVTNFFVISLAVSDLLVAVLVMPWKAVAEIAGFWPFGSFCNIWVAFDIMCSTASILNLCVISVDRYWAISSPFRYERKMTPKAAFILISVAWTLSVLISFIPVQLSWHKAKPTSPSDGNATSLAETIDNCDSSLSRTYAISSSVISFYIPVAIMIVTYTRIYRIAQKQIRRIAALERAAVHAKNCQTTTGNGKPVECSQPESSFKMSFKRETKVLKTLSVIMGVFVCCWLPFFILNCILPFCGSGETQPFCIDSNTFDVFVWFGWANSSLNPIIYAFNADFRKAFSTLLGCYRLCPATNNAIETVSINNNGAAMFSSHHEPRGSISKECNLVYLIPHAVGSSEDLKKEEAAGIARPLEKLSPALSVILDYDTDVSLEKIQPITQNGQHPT

Compound	outcome	EC50
CCn1c(SCc2cccnc2)nc2c1c(=O)n(C)c(=O)n2C	inactive	
COc1ccccc1-c1nnc2n1N=C(C(C)(C)C)CS2	inactive	
O=c1c2cc(Cl)ccc2[nH]c(=S)n1Cc1ccco1	inactive	
Cc1cc(C)n(CC(=O)n2c3c(c4ccccc42)CCCC3)n1	inactive	
Cc1cc(C)n2c3c(c(C#N)c2n1)CCCC3	inactive	
Cn1nnnc1SCC(=O)Nc1nc(-c2ccccc2)c(-c2ccccc2)o1	inactive	
Fc1cc(Br)ccc1Nc1nc2ccccc2n2nnnc12	inactive	
CCOC(=O)c1c(C)oc2c1c(C=NCc1ccccn1)c(O)c1ccccc12	inactive	
CSC1=NCCN1C(=O)c1ccc(Br)o1	inactive	
Cc1ccc(CCNS(=O)(=O)c2cnc[nH]2)cc1	inactive	
N#Cc1cnn(Cc2ccccc2)c1/N=C/N1CCOCC1	inactive	
CCOC(=O)c1c(C)c(C(=O)NCc2ccccc2OC)c(C)n1C	inactive	
Nc1nc(SCc2ccc3c(c2)OCCO3)n[nH]1	inactive	
CCCCn1c2nc3ccccc3nc2c2c(=O)n(C(C)CC)cnc21 (stereo not drawn)	inactive	
CNc1nc(C)c(C#N)c(-c2ccccc2)c1C(C)=O		2.33 µM
O=C1CSc2ccccc2N1Cc1ccccc1F	inactive	
COC(=O)c1c(-c2ccc(F)cc2)csc1NC(=O)c1ccco1	inactive	
Cc1ccc(-c2cc(-c3ccc(C)o3)nc(N)c2C#N)cc1	inactive	
Cc1cc(SCC(=O)N2CCC(c3noc4ccc(F)cc34)CC2)nc2ccccc12	inactive	
COc1ccc(OC)c(C2=NOC(C(=O)Nc3cccc(C(C)=O)c3)C2)c1 (stereo not drawn)	inactive	
CC(C)c1ccc(-c2nc(N3CCCCC3)[nH]c(=O)c2C#N)cc1		1.75 µM
N#Cc1nc(-c2ccccc2Cl)oc1N1CCOCC1	inactive	
COc1ccc(N2C(=O)C3CCCN3C2c2ccccc2)cc1Cl (stereo not drawn)	inactive	

Compound	outcome	EC50
CCOC(=O)CCSc1nc(C)c2ccccc2n1	inactive	
Clc1cccc(Nc2c3c(nc4ncnn24)CCC3)c1	inactive	
COc1ccc2c(c1)C(=O)N(c1ccccc1OC)C(=O)C2(C)C	inactive	
N#CC1=C(N)Oc2n[nH]c(-c3cccs3)c2C1c1ccsc1 (stereo not drawn)	inactive	
CCOCCOC(=O)C1=C(C)Nc2ccc(C)cc2S1	inactive	
CC1=CC(C)(C)N=C(NC#N)N1	inactive	
O=c1cc(-c2ccccc2)c2c([nH]1)CCCC2	inactive	
COC(=O)c1c(-c2ccccc2)csc1NC(=O)c1ccco1	inactive	
CC(C)Oc1ccccc1C1CC(=O)Nc2cc3c(cc21)OCCO3 (stereo not drawn)	inactive	
CCOC(=O)c1ccc(N2CN=C3SCC(=O)N3C2)cc1	inactive	
CSc1ccc(C2C(C#N)=C(N)N(c3ccccc3)C3=C2C(=O)CCC3)cc1 (stereo not drawn)	inactive	
CC(C)OC(=O)CSc1nnc(-c2cnccn2)n1-c1ccc(Cl)cc1	inactive	
CCn1c(SCC(=O)Nc2ccccc2N2CCCCC2)nc2c1c(=O)n(C)c(=O)n2C	inactive	
Cc1cccc(Cc2c(C)nc3c(C(=O)NCc4ccco4)cnn3c2C)c1	inactive	
CCCn1c(=O)c2ccccc2n2c(SCc3nc4ccccc4s3)nnc12	inactive	
Cn1c(=O)c2c(-c3ccccc3)n(N3CCOCC3)cc2n(C)c1=O	inactive	
O=S(=O)(c1ccccc1)c1nc(-c2ccco2)oc1N1CCCCCC1	inactive	
COCCNc1oc(-c2ccc(C)cc2)nc1C#N	inactive	
O=C1COc2ccc(C(=O)c3ccccc3)cc2CN1	inactive	
Cc1onc(-c2ccccc2)c1C(=O)Nc1ccc2c(c1)OCO2	inactive	
CSc1oc(-c2ccco2)nc1S(=O)(=O)c1ccc(F)cc1	inactive	
CCN(CC)CCOc1c(Br)ccc2c1sc1nc3n(c(=O)c12)CCC3	inactive	
COC(=O)c1ccc(OCCn2cnc3ccccc3c2=O)cc1	inactive	

Compound	outcome	EC50
CCOC(=O)N1CCN(C(=O)C(C)(C)Oc2ccc(Cl)cc2)CC1	inactive	
CC(=O)Nc1nc2n(n1)C(c1ccccc1)C=C(c1ccccc1)N2 (stereo not drawn)	inactive	
Cc1c(C)c2ccc(OC3CCCCC3=O)cc2oc1=O (stereo not drawn)	inactive	
Cc1ccc(-c2nc3ncccn3c2NC(=O)C2CC2)cc1	inactive	
CCCn1c(SCC(=O)Nc2sc(C)c(C)c2C(=O)OCC)nc2c1c(=O)n(C)c(=O)n2C	inactive	
CCCCn1c(=NC(=O)c2ccco2)c(C(=O)OCC)cc2c(=O)n3ccccc3nc21	inactive	
COC(=O)c1sc(=S)sc1C(=O)OC	inactive	
Cc1ccc(-n2cnnn2)c2cccnc12	inactive	
COc1cccc(NC2=NCC(=O)N2Cc2cccs2)c1	inactive	
COc1ccc(C(=O)Nc2nnc(Cc3cccs3)s2)cc1OC		0.313 µM
CCOc1ccc(CC(=O)Nc2c(C(N)=O)oc3ccccc23)cc1OCC	inactive	
O=C1COc2ccccc2N1Cc1ccccc1Cl	inactive	
N#CCCN1CCN(S(=O)(=O)c2ccc(S(=O)(=O)NC3CCCCC3)cc2)CC1	inactive	
COc1ccc2nc(SCC(=O)N3CCCCCC3)c(C#N)cc2c1	inactive	
CC(C)Cn1c(-c2cccs2)nc2nc3ccccc3nc21	inactive	
CCCNc1nc2c(c(=O)[nH]c(=O)n2C)n1CCc1ccccc1	inactive	
O=CN1Cc2[nH]c3ccccc3c2N(c2ccc(Cl)cc2)C1=O	inactive	
Cc1ccc(Nc2nnc(SCc3cc(=O)n4ccsc4n3)s2)c(C)c1	inactive	
Cc1cc(-n2nc(C)cc2C)nc(NS(=O)(=O)c2ccccc2)n1	inactive	
CC1(C)CN=C(Nc2nc3ccccc3s2)S1	inactive	
Cn1cnc2c1c(=O)n(Cc1ccc(F)cc1Cl)c(=O)n2C	inactive	
COc1ccc(S(=O)(=O)Nc2ccc3c(c2)OCO3)cc1OC	inactive	
CCOC(=O)c1cc2c(=O)n3ccccc3nc2n(CCCOC)c1=NC(=O)C(C)(C)C	inactive	

Compound	outcome	EC50
CCOc1cc(C2CC(=O)NC(SCC)=C2C#N)ccc1O (stereo not drawn)	inactive	
Nc1nc(SCC(=O)OCc2ccccc2)[nH]c(=O)c1NC(=O)c1ccco1	inactive	
Cn1c(=O)c2c(-c3ccc(C(C)(C)C)cc3)n(N3CCOCC3)cc2n(C)c1=O	inactive	
Nc1nc2n(n1)C(c1ccco1)CC(c1ccc(F)cc1)N2 (stereo not drawn)	inactive	
CC(C)n1c(C(O)c2ccccc2)nc2ccccc21 (stereo not drawn)	inactive	
COc1ccccc1CNC(=O)c1ccc(NS(=O)(=O)c2c(C)noc2C)cc1	inactive	
COc1ccc(-c2noc(-c3ccco3)n2)cc1OC	inactive	
C=CCn1c2ccccc2c2nnc(SCC(=O)NC(C(=O)OC)C(C)C)nc21 (stereo not drawn)	inactive	
CCc1nn(CCCC(=O)N2CCc3ccccc3C2)c(=O)c2cc3occc3n12	inactive	
COc1ccc(-c2noc(CCC(N)=O)n2)cc1OC	inactive	
COC(=O)c1ccc(COc2nc(C)cc(C)c2C#N)o1	inactive	
CCCCNC(=O)Nc1ccc(Br)cn1		2.43 µM
Cc1cc(=O)n(CC=C(Cl)Cl)c2ccccc12	inactive	
CCc1ccc2[nH]c(=O)c(CN(Cc3nnnn3C3CCCC3)C3CCCCC3)cc2c1	inactive	
CC(C)C1C2=C(CC(C)(C)CC2=O)ON1c1ccccc1 (stereo not drawn)	inactive	
COc1ccc(Cn2nnc3c(=O)[nH]c(C4CCCN(C(=O)c5ccccc5)C4)nc32)cc1 (stereo not drawn)	inactive	
C1CCC(c2nn3c(-c4n[nH]c5c4CCC5)nnc3s2)CC1		1.14 µM
C=CCNc1sc(C(=O)C(C)(C)C)c(N)c1C#N		1.14 µM
N#CCSc1nc2c(sc(=S)n2Cc2ccco2)c(=O)n1-c1ccc(F)cc1	inactive	
O=C(OCCCCN1C(=O)c2ccccc2C1=O)c1n[nH]c2ccccc12	inactive	
Cc1csc2c(C#N)c(=O)c3c(n12)CCC3	inactive	
COc1ccc(CCNS(=O)(=O)c2ccc3c(c2)OCCO3)cc1OC	inactive	
CC(=O)C1=C(C)NC(SCC(=O)c2ccc(F)cc2)=C(C#N)C1c1ccco1 (stereo not drawn)	inactive	

Compound	outcome	EC50
Cc1cc(NS(=O)(=O)c2ccc(NC(=O)COc3ccccc3C(C)C)cc2)no1	inactive	
CCOC(=O)N1CCN(C(=O)CCCn2c(=S)[nH]c3ccccc3c2=O)CC1	inactive	
CCSC(C)CC1C/C(=N/O)c2c(CC)noc2C1 (stereo not drawn)	inactive	
CCc1nnc(NC(=O)CSc2ncc(-c3ccccc3)n2CC)s1	inactive	
COc1ccc(OC)c(/C=N/c2oc(-c3ccco3)c(-c3ccco3)c2C#N)c1		1.97 µM
Cc1cc(=O)c2n(Cc3ccc(Cl)cc3)nc[n+]2[nH]1	inactive	
Cc1cc(C)c(C#N)c(SCc2ccc(C#N)cc2)n1	inactive	
COc1cc2c(cc1OC)C(C(=O)Nc1ccc3c(c1)OCCO3)C1c3ccccc3CCN1C2=O (stereo not drawn)	inactive	
Cc1cc(Br)c2c(c1)=C(c1sc(N3CCCCCC3)nc1O)C(=O)N=2		1.35 µM
CCC(=O)N1CCc2cc(S(=O)(=O)NCCC(=O)NC3CCCc4ccccc43)ccc21 (stereo not drawn)	inactive	
Cc1ccc(OCCN2C(=O)OC(C)(C)C2(C)O)cc1 (stereo not drawn)	inactive	
N#Cc1c(N)nc(-c2ccccc2)nc1-c1ccccc1		1.17 µM
O=C(CC1SC(=NC2CCCCC2)NC1=O)Nc1ccccc1 (stereo not drawn)	inactive	
CNc1nc(C)c(C(=O)OCC(=O)OC)s1	inactive	
COc1ccc(CCNc2nnc(Sc3nnnn3-c3ccccc3)s2)cc1OC	inactive	
Cc1cc(NC(=O)COc2nnc(-c3ccccc3)c3ccccc23)no1	inactive	
CCOC(=O)c1c(-c2ccncc2)csc1N	inactive	
NC(=O)CSc1nc2scc(-c3ccco3)c2c(=O)n1-c1ccccc1		1.63 µM
CCOc1ccc(C2Oc3nc(SC)nnc3-c3ccccc3N2C(C)=O)cc1OC (stereo not drawn)		2.38 µM
CCOC(=O)c1ccc(Oc2cc(C)nc(SC)n2)cc1	inactive	
CCC(=O)n1nc(-c2cccnc2)nc1NCc1ccc(OC)cc1	inactive	
